{"source": "patent US20190309066A1", "about": "“COMBINATION THERAPY FOR THE TREATMENT OF SOLID AND HEMATOLOGICAL CANCERS” (Arch Oncology, Inc., priority 2017, published 2019)", "system": "RPMI-8226 tumors", "test": "RPMI-8226 multiple myeloma xenograft in NSG mice", "assay_type": "in vivo, mouse", "description": "The purpose of this experiment was to evaluate the efficacy of anti-CD47 antibodies as a single agent and in combination with the proteasome inhibitor Bortezomib in the tumor growth inhibition in vivo in a xenograft mouse model of multiple myeloma. RPMI-8226 human multiple myeloma cells (ATCC #CCL-155, Manassas, Va.) were maintained in RPMI-1640 (Lonza; Walkersville, Md.) supplemented with 10% Fetal Bovine Serum (FBS; Omega Scientific; Tarzana, Calif.) and 1% Penicillin/Streptomycin (Corning, Manassas, Va.) within a 5% CO2 atmosphere. Cultures were expanded in tissue culture flasks.\nFemale NSG (NOD-Cg-Prkdc^scidI12rg^tm1Wjl/SzJ) were obtained from Jackson Laboratory (Bar Harbor, Me.) at 5-6 weeks of age. Mice were acclimated prior to handling and housed in microisolator cages (Lab Products, Seaford, Del.) under specific pathogen-free conditions. Mice were fed Teklad Global Diet® 2920× irradiated laboratory animal diet (Envigo, Formerly Harlan; Indianapolis, Ind.) and provided autoclaved water ad libitum. All procedures were carried out under the institutional guidelines of Translational Drug Development Institutional Animal Care and Use Committee (Protocol #18105). Animals were identified using transponders.\nFemale NSG mice were inoculated subcutaneously in the right flank with 0.1 mL of a 30% RPMI/70% Matrigel™ (BD Biosciences; Bedford, Mass.) mixture containing a suspension of 1×10^7 RPMI-8226 tumor cells. Fifteen days following inoculation, mice were randomized Test articles human IgG2 (hIgG2), an anti-CD47 antibody, and Bortezomib (LC Labs, Woburn, Mass.) were administered by intravenous (IV) injection. hIgG2 and anti-CD47 mAb were dosed on Days 0, 7, 14, 21, 28, and 35, while Bortezomib was dosed on Days 1, 4, and 12. as described below in Table 12.\nMean tumor growth inhibition (TGI) was calculated for Day 48 (the final day all mice were on study) utilizing the following formula.\nThe mean TS of each group was calculated and reported.\nAll statistical analyses in the xenograft study were performed with Prism GraphPad® software. Differences in Day 48 tumor volumes were confirmed using a one-way ANOVA, unpaired, parametric with the Tukey's Multiple Comparison test with Welch's correction. A two-tailed Student's t-test with Welch's correction was also used to verify any differences between each group and the vehicle control.\nFor statistical analysis purpose, any mouse sacrificed as an long term survivor (LTS) was assigned a death day of Day 99.", "note": "“And” between values parts separate entries of the source, which are not always exact repeats. Equal values may be shown once.", "data": [{"compound": "CC(C)C[C@H](NC(=O)[C@H](Cc1ccccc1)NC(=O)c1cnccn1)B(O)O", "note": "[Bortezomib]", "values": [{"measurement": "Mean Day of Survival Days ± SEM", "setting": "Bortezomib 1 mg/kg", "result": "76.8 ± 1.6", "unit": "days"}, {"measurement": "Median Day of Survival (Min-Max)", "setting": "Bortezomib 1 mg/kg", "result": "78 (70-84) Days"}, {"measurement": "Day 48 Mean Tumor Volume (mm^3)", "setting": "Bortezomib 1 mg/kg IV", "result": "177 ± 20", "unit": "mm^3"}, {"measurement": "tumor shrinkage (in words)", "setting": "Bortezomib 1 mg/kg IV monotherapy", "result": "no tumor shrinkage was recorded"}, {"measurement": "Day 48 % TGI", "setting": "Bortezomib 1 mg/kg IV, vs hIgG2 control", "result": "96.2% and 96.2 (10) %"}, {"measurement": "Day 48 Outcome (ANOVA), tumor volume vs hIgG2 (Group 1)", "setting": "P value, Bortezomib 1 mg/kg", "result": "P < 0.05"}, {"measurement": "Day 48 Outcome (Student's t-test), tumor volume vs hIgG2 (Group 1)", "setting": "P value, Bortezomib 1 mg/kg", "result": "P < 0.05"}, {"measurement": "Survival Log-Rank Outcome vs hIgG2 (Group 1)", "setting": "P value, Bortezomib 1 mg/kg", "result": "P < 0.05"}]}]}
